Measured values as given in patent US20210154202A1, “SYNTHESIS OF DENTIMOL, AN ANTIGLAUCOMA DRUG” (Virginia Commonwealth University, priority 2018, published 2021).

Experiments:
NIH 3T3 fibroblasts = assay: Cytotoxicity study, WST-1 cell proliferation assay; format: cell-based; settings: no concentration stated
Method: Cytotoxicity study. NIH 3T3 fibroblasts were seeded in a 96-well plate at 5000 cells per well and allowed 24 h to attach. The cells were maintained in DMEM medium supplemented with 10% serum, streptomycin […] and penicillin (100 U/mL) at 37° C. in 95% air/5% CO2. Upon the removal of the medium, the cells were incubated with fresh DMEM medium (control) or fresh medium containing various amounts of OTM, OTM-PEG, or DenTimol (n=8) for 24 h. Cell viability relative to untreated cells was determined using the WST-1 cell proliferation assay.

[1] = Water solubility / hydrophobicity as stated; format: physicochemical
[2] = tested on: rats (cornea, ciliary body, retina); assay: In vivo safety assessment, ocular tolerance and histology after once-daily dosing for seven days
Method: In vivo safety assessment. To assess in vivo ocular tolerance, rats received OTM, timolol, or DenTimol (2×5 μL, 0.5% w/v OTM equivalent) in the right eye once daily for seven days. At the conclusion of the experiment, the rats were euthanized. The eyes were enucleated and immediately fixed in Davidson's solution, and 5 μm sections prepared for histological evaluation.

[3] = delivered as a topical solution; cited from earlier work
[4] = Ex vivo corneal permeation study, Franz diffusion cells; format: in vitro ADME; settings: rabbit cornea, 37° C., 3.7 mM OTM equivalent donor
Method: Ex vivo corneal permeation study. Corneal permeability was determined using Franz diffusion cells (PermeGear, Hellertown, Pa.). Corneas were extracted from fresh rabbit eyes and placed immediately into diffusion cells with the endothelial surface facing the acceptor chamber and the epithelial surface facing the donor chamber. The acceptor chamber was filled with 5 mL of glutathione buffered Ringer's solution, and the donor chamber with 100 μL of a solution containing 1 mg of DenTimol (3.7 mM OTM equivalent). For comparison, permeation of OTM and OTM-PEG across the cornea were also tested at the same OTM equivalent concentration. The diffusion cells were placed in a water bath at 37° C. At various time points, 250 μL samples were withdrawn from the acceptor chamber, and drug concentrations were measured using the reverse phase HPLC system.

Row | Drug permeated through the cornea in 4 h [4] [%] | Compound | Toxicity of OTM (stated) (NIH 3T3 fibroblasts) | Water solubility / hydrophobicity [1] | Histology (H&E) of cornea, ciliary body and retina after repeated dosing [2] | Period after a dose within therapeutic concentration window in the anterior chamber [3] [h] | Share of total drug reaching the target organ with each dose [3]
1 | – | C1CN(c2nsnc2OC[C@@H]2CO2)CCO1 [OTM, (S)-4-[4-(Oxiranylmethoxy)-1,2,5-thiadiazol-3-yl]morpholine] | non-toxic | highly hydrophobic | did not alter the structures of the cornea, ciliary body, and retina | – | –
2 | 3.5 | CC(C)(C)NC[C@H](O)COc1nsnc1N1CCOCC1 [timolol] | – | – | – | 4 to 5 | about 5%
